Results as given in US7157482B2, “Antibacterial 1,3-oxazolidin-2-one derivatives” (AstraZeneca AB, priority 2003, dated 2007).
Values after ≈ are worked out from the molar mass of the structure shown.

What was measured:
[1] = test system: Enterococcus faecium; experiment: MIC, agar-dilution, Enterococcus faecium; assay type: cell-based; details: agar with 5% defibrinated horse blood, 10^4 CFU/spot, 37° C., 5% carbon dioxide, 48 hours
Protocol: (§1) The following results were obtained on a standard in-vitro test system. The activity is described in terms of the minimum inhibitory concentration (MIC) determined by the agar-dilution technique with an inoculum size of 10^4 CFU/spot. Typically, compounds are active in the range 0.01 to 256 μg/ml.
(§2) Streptococci and enterococci were tested on agar supplemented with 5% defibrinated horse blood, an inoculum of 10^4 CFU/spot and an incubation temperature of 37° C. in an atmosphere of 5% carbon dioxide for 48 hours—blood is required for the growth of some of the test organisms. Fastidious Gram negative organisms were tested in Mueller-Hinton broth, supplemented with hemin and NAD, grown aerobically for 24 hours at 37° C., and with an innoculum of 5×10^4 CFU/well.

[2] = test system: Streptococcus pneumoniae; experiment: MIC, agar-dilution, Streptococcus pneumoniae; assay type: cell-based; details: agar with 5% defibrinated horse blood, 10^4 CFU/spot, 37° C., 5% carbon dioxide, 48 hours
Protocol: as §1, §2

[3] = test system: Moraxella catarrhalis; experiment: MIC, Moraxella catarrhalis; assay type: cell-based; details: fastidious Gram negative: Mueller-Hinton broth with hemin and NAD, 24 hours, 37° C., 5×10^4 CFU/well
Protocol: as §1, §2

[4] = test system: Staphylococcus aureus MRQR (methicillin resistant and quinolone resistant); experiment: MIC, agar-dilution, Staphylococcus aureus MRQR; assay type: cell-based; details: S. aureus MRQR, inoculum 10^4 CFU/spot, 37° C., 24 hours
Protocol: as §1
(§3) Staphylococci were tested on agar, using an inoculum of 10^4 CFU/spot and an incubation temperature of 37° C. for 24 hours—standard test conditions for the expression of methicillin resistance.

[5] = target: T1, MAO-A (Homo sapiens, UniProt P21397); experiment: MAO-A in-vitro assay, human liver enzyme expressed in yeast; assay type: biochemical
T1 construct: made in house; host or cells: yeast
T1 sequence (P21397 1-527): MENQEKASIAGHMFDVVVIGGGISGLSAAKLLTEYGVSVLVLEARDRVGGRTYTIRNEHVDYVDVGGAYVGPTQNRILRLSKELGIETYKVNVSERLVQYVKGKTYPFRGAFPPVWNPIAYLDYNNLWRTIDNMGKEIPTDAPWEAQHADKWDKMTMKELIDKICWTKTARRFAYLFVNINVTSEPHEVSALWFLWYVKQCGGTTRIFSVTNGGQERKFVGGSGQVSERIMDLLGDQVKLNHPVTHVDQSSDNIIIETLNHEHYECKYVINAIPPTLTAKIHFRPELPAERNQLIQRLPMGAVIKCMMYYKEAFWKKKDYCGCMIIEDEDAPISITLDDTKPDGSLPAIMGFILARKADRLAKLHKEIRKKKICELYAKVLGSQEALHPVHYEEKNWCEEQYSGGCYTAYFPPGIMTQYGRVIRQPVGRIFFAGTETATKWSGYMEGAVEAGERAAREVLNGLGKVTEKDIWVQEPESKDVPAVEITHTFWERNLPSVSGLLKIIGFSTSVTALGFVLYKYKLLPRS
Protocol: The activity of the compounds of the invention against MAO-A was tested using a standard in-vitro assay based on human liver enzyme expressed in yeast as described in Biochem. Biophys. Res. Commun. 1991, 181, 1084–1088.

[6] = test system: Staphylococcus aureus MSQS (methicillin sensitive and quinolone sensitive); experiment: MIC, agar-dilution, Staphylococcus aureus MSQS; assay type: cell-based; details: S. aureus MSQS, inoculum 10^4 CFU/spot, 37° C., 24 hours
Protocol: as §1, §3

| MIC [1] | MIC [2] | MIC [3] | MIC [4] | Ki [5] | MIC [6] | Structure (SMILES) |
| --- | --- | --- | --- | --- | --- | --- |
| 1 µg/mL (≈ 2.8 µM) | 0.5 µg/mL (≈ 1.4 µM) | 1 µg/mL (≈ 2.8 µM) | 1 µg/mL (≈ 2.8 µM) | 58.8 µM | 4 µg/mL (≈ 11.2 µM) | Cc1cn(C[C@H]2CN(c3ccc(-c4cc(C)no4)c(F)c3)C(=O)O2)nn1 [Example 1, (5R)-3-[3-Fluoro-4-(3-methylisoxazol-5-yl)phenyl]-5-[(4-methyl-1H-1,2,3-triazol-1-yl)methyl]-1,3-oxazolidin-2-one] |
| – | – | – | – | 6.99 µM | – | Cc1cc(-c2ccc(N3C[C@H](Cn4ccnn4)OC3=O)cc2F)on1 [unsubstituted triazole equivalent, reference compound] |
